Source: patent US20240148709A1, “METHODS OF TREATING EYE PAIN AND EYE DISORDERS” (Aisa Pharma, Inc., priority 2022, published 2024)

System: participants with SSc-RP
Test: Scleroderma Health Assessment Questionnaire (SHAQ), Phase 2a study Part A
Type: in vivo, human
Settings: for % change in Pain (SHAQ): mITT
Procedure: Part A—double-blind, placebo-controlled, parallel-group, dose selection, will assess the safety and efficacy of two doses of cilnidipine (10 mg and 20 mg), alone and in combination with tadalafil. A total of 36 participants will be randomized to one of six prespecified treatment arms. Refer to FIG. 1 for treatment arms in Part A of the study. Dosing last for 12 (±2) days in which participants will self-administer daily doses of assigned treatment in the morning. Each participant will take one capsule and one tablet to blind the active therapy being received.
The standard, validated, patient reported outcome measures tool for SSc patients, the SHAQ, will be collected at the time points specified in the study schedules (FIG. 2 and FIGS. 3A and 3B) to assess the participant's quality of life. The SHAQ includes a Raynaud's VAS that will also be reported separately.
Results: Patients in the study were administered the Scleroderma Health Assessment Questionnaire (SHAQ) at the time of study entry and during clinic visits following the treatment period. The study is a two-part, parallel arm design, prospective, double-blind, randomized study conducted in Australia (Flinders Medical Center). 27 patients were randomized into the first phase of the study, following which a DSMB meeting was held, which reviewed data on the primary study endpoint and key Raynaud's secondary endpoints. Data on the SHAQ was not available for the DSMB to review. The mITT population, in which any data was available post treatment was 24 patients was the analysis population for this first part of the study. The second part (i.e., part B) of the study will randomize 36 patients in a double blind, randomized, prospective, placebo controlled, crossover study. In the first part (i.e., Part A) of the study for which data is presented, patients were randomized into 6 groups, cilnidipine at two doses (10 and 20 mg) alone and in combination with tadalafil 5 mg, tadalafil 5 mg alone, and placebo. […] The DSMB recommended that the study proceed into its double blind prospective cross overpowered second phase and compare cilnidipine 20 mg alone to placebo.

[1] = Pooled Cilnidipine 10 mg or 20 mg (N = 7)
[2] = Pooled Cilnidipine 10 mg or 20 mg (n = 6)
[3] = cilnidipine 10 mg and/or tadalafil 5 mg arms

`COCCOC(=O)C1=C(C)NC(C)=C(C(=O)OC/C=C/c2ccccc2)C1c1cccc([N+](=O)[O-])c1` (stereo not drawn) [Cilnidipine, cilnidipine] was tested. Which “% change VAS Raynauds” value (Cilnidipine 20 mg (n = 3)) did it give?
The value was −49%.

And the “% change in Alternative Disability Index” value (Cilnidipine 20 mg (n = 3))?
Its value is −42%.

And the “% change in Standard Disability Index” value (Cilnidipine 20 mg (n = 3))?
The value was −50%.

And the “% change overall SSc Disease Severity” value (Cilnidipine 20 mg (n = 3))?
The value was −63% (i.e., improvement).

What about the “% improvement in Breathing (median)” value (Cilnidipine 20 mg (n = 3)) of the same compound?
Its value is 67% (median).

What about the “% improvement in VAS Digital Ulcers” value (Cilnidipine 20 mg (n = 3)) of the same compound?
The value was 35%.

And the “Alternative disability index, % improvement” value (Cilnidipine 20 mg (n = 3))?
The value was 42% improvement.

What about the “Standard disability Index, % improvement” value (Cilnidipine 20 mg (n = 3)) of the same compound?
The value was 50% improvement.

What about the “VAS - Breathing problems, % improvement” value (Cilnidipine 20 mg (n = 3)) of the same compound?
Its value is 75% improvement*.

And the “VAS - Raynaud's, % improvement” value (Cilnidipine 20 mg (n = 3))?
The value was 55% improvement.

And the “VAS Overall Disease Severity, % improvement” value (Cilnidipine 20 mg (n = 3))?
The value was 63% improvement.

What about the “% change in Pain (SHAQ)” value (Cilnidipine 20 mg (n = 3)) of the same compound?
The value was −53%.

What about the “VAS- PAIN, % improvement” value (Cilnidipine 20 mg (n = 3), baseline 2.17 on a 0-10 VAS) of the same compound?
Its value is 53% improvement*.

What about the “SHAQ overall disease severity, Change from Baseline, Max” value [1] of the same compound?
The value was 0.20.

And the “SHAQ overall disease severity, Change from Baseline, Mean (SD)” value [1]?
The value was −1.214 (0.7946).

What about the “SHAQ overall disease severity, Change from Baseline, Median” value [1] of the same compound?
Its value is −1.500.

And the “SHAQ overall disease severity, Change from Baseline, Min” value [1]?
Its value is −1.90.

And the “SHAQ overall disease severity, Change from Baseline, Q1” value [1]?
Its value is −1.800.

What about the “SHAQ overall disease severity, Change from Baseline, Q3” value [1] of the same compound?
Its value is −0.400.

And the “SHAQ overall disease severity, In-Clinic Visit (Day 12), Max” value [1]?
The value was 5.20.

And the “SHAQ overall disease severity, In-Clinic Visit (Day 12), Mean (SD)” value [1]?
The value was 1.486 (1.7743).

And the “SHAQ overall disease severity, In-Clinic Visit (Day 12), Median” value [1]?
Its value is 1.200.

And the “SHAQ overall disease severity, In-Clinic Visit (Day 12), Min” value [1]?
Its value is 0.00.

And the “SHAQ overall disease severity, In-Clinic Visit (Day 12), Q1” value [1]?
The value was 0.200.

And the “SHAQ overall disease severity, In-Clinic Visit (Day 12), Q3” value [1]?
The value was 1.900.

What about the “SHAQ overall disease severity, Percent Change from Baseline, Max” value [2] of the same compound?
The value was −26.8%.

What about the “SHAQ overall disease severity, Percent Change from Baseline, Mean (SD)” value [2] of the same compound?
Its value is −59.80 (25.642) %.

And the “SHAQ overall disease severity, Percent Change from Baseline, Median” value [2]?
Its value is −55.86%.

What about the “SHAQ overall disease severity, Percent Change from Baseline, Min” value [2] of the same compound?
Its value is −100.0%.

And the “SHAQ overall disease severity, Percent Change from Baseline, Q1” value [2]?
Its value is −76.19%.

What about the “SHAQ overall disease severity, Percent Change from Baseline, Q3” value [2] of the same compound?
The value was −44.12%.

And the “% change VAS Raynauds” value (Pooled Cilnidipine (n = 7))?
The value was −17%.

What about the “% change in Alternative Disability Index” value (Pooled Cilnidipine (n = 7)) of the same compound?
Its value is −13%.

What about the “% change in Standard Disability Index” value (Pooled Cilnidipine (n = 7)) of the same compound?
Its value is −25%.

What about the “% change overall SSc Disease Severity” value (Pooled Cilnidipine (n = 7)) of the same compound?
The value was −60% (i.e., improvement).

And the “% improvement in Breathing (median)” value (Pooled Cilnidipine (n = 7))?
The value was 41% (median).

What about the “% improvement in VAS Digital Ulcers” value (Pooled Cilnidipine (n = 7)) of the same compound?
Its value is 19%.

What about the “% change in Pain (SHAQ)” value (Pooled Cilnidipine (n = 7)) of the same compound?
Its value is −31%.

And the “% from baseline, Intestinal Problems, mean” value (Pooled cilnidipine)?
Its value is −32.4%.

And the “% from baseline, Intestinal Problems, median” value (Pooled cilnidipine)?
Its value is −44.1%.

What about the “% from baseline, VAS Breathing, mean” value (Pooled cilnidipine) of the same compound?
The value was −8.2%.

And the “% from baseline, VAS Breathing, median” value (Pooled cilnidipine)?
Its value is −41.3%.

What about the “% from baseline, VAS Finger Ulcers, mean” value (Pooled cilnidipine) of the same compound?
The value was −17.1%.

What about the “% from baseline, VAS Finger Ulcers, median” value (Pooled cilnidipine) of the same compound?
The value was −50.9%.

And the “% from baseline, VAS Overall Disease Severity, mean” value (Pooled cilnidipine)?
The value was −59.8%.

What about the “% from baseline, VAS Overall Disease Severity, median” value (Pooled cilnidipine) of the same compound?
Its value is −55.9%.

What about the “% from baseline, VAS Pain, mean” value (Pooled cilnidipine) of the same compound?
Its value is −31.2%.

And the “% from baseline, VAS Pain, median” value (Pooled cilnidipine)?
The value was −45%.

What about the “% from baseline, VAS Raynaud's, mean” value (Pooled cilnidipine) of the same compound?
Its value is −18.6%.

And the “% from baseline, VAS Raynaud's, median” value (Pooled cilnidipine)?
Its value is −38.7%.

What about the “% from baseline, alternative disability, mean” value (Pooled cilnidipine) of the same compound?
Its value is −12.9%.

What about the “% from baseline, alternative disability, median” value (Pooled cilnidipine) of the same compound?
Its value is −22.2%.

What about the “% from baseline, standard disability, mean” value (Pooled cilnidipine) of the same compound?
Its value is −25%.

And the “% from baseline, standard disability, median” value (Pooled cilnidipine)?
Its value is −16.7%.

And the “SHAQ Finger Ulcers, Change from Baseline, Max” value [3]?
Its value is 0.00.

And the “SHAQ Finger Ulcers, Change from Baseline, Mean (SD)” value [3]?
Its value is −0.425 (0.5058).

What about the “SHAQ Finger Ulcers, Change from Baseline, Median” value [3] of the same compound?
Its value is −0.350.

And the “SHAQ Finger Ulcers, Change from Baseline, Min” value [3]?
The value was −1.00.

And the “SHAQ Finger Ulcers, Change from Baseline, Q1” value [3]?
The value was −0.850.

What about the “SHAQ Finger Ulcers, Change from Baseline, Q3” value [3] of the same compound?
Its value is 0.000.

And the “SHAQ Finger Ulcers, In Clinic Visit (Day 12), Max” value [3]?
The value was 1.10.

And the “SHAQ Finger Ulcers, In Clinic Visit (Day 12), Mean (SD)” value [3]?
The value was 0.275 (0.5500).

What about the “SHAQ Finger Ulcers, In Clinic Visit (Day 12), Median” value [3] of the same compound?
The value was 0.000.

What about the “SHAQ Finger Ulcers, In Clinic Visit (Day 12), Min” value [3] of the same compound?
Its value is 0.00.

What about the “SHAQ Finger Ulcers, In Clinic Visit (Day 12), Q1” value [3] of the same compound?
The value was 0.000.

And the “SHAQ Finger Ulcers, In Clinic Visit (Day 12), Q3” value [3]?
The value was 0.550.

And the “SHAQ Finger Ulcers, Percent Change from Baseline, Max” value [3]?
Its value is −38.9%.

What about the “SHAQ Finger Ulcers, Percent Change from Baseline, Mean (SD)” value [3] of the same compound?
The value was −69.44 (43.212) %.

And the “SHAQ Finger Ulcers, Percent Change from Baseline, Median” value [3]?
Its value is −69.44%.

And the “SHAQ Finger Ulcers, Percent Change from Baseline, Min” value [3]?
Its value is −100.0%.

And the “SHAQ Finger Ulcers, Percent Change from Baseline, Q1” value [3]?
Its value is −100.00%.

And the “SHAQ Finger Ulcers, Percent Change from Baseline, Q3” value [3]?
Its value is −38.89%.

And the “SHAQ Overall Change in Severity, Change from Baseline, Max” value [3]?
The value was 0.20.

And the “SHAQ Overall Change in Severity, Change from Baseline, Mean (SD)” value [3]?
The value was −0.900 (0.9695).

And the “SHAQ Overall Change in Severity, Change from Baseline, Median” value [3]?
The value was −0.950.

And the “SHAQ Overall Change in Severity, Change from Baseline, Min” value [3]?
Its value is −1.90.

And the “SHAQ Overall Change in Severity, Change from Baseline, Q1” value [3]?
Its value is −1.700.

And the “SHAQ Overall Change in Severity, Change from Baseline, Q3” value [3]?
Its value is −0.100.

What about the “SHAQ Overall Change in Severity, In Clinic Visit (Day 12), Max” value [3] of the same compound?
Its value is 5.20.

What about the “SHAQ Overall Change in Severity, In Clinic Visit (Day 12), Mean (SD)” value [3] of the same compound?
The value was 1.825 (2.4061).

What about the “SHAQ Overall Change in Severity, In Clinic Visit (Day 12), Median” value [3] of the same compound?
The value was 1.050.

What about the “SHAQ Overall Change in Severity, In Clinic Visit (Day 12), Min” value [3] of the same compound?
Its value is 0.00.

What about the “SHAQ Overall Change in Severity, In Clinic Visit (Day 12), Q1” value [3] of the same compound?
Its value is 0.100.

What about the “SHAQ Overall Change in Severity, In Clinic Visit (Day 12), Q3” value [3] of the same compound?
Its value is 3.550.
